Legend:
Format in all cases: in vivo
[1] = system: Erigeron canadensis; test: Example 1 post-emergence greenhouse trial, ERICA; details: growth stage 18, 21 DAT
Description: (§1) In the examples below, using the method of S. R. Colby (1967) “Calculating synergistic and antagonistic responses of herbicide combinations”, Weeds 15, p. 22ff., the value E, which is expected if the activity of the individual active compounds is only additive, was calculated: [formula] • where • X=percent activity using active herbicide A at an application rate a; • Y=percent activity using active herbicide B (e.g. mesotrione) at an application rate b; • E=expected activity (in %) by A+B at application rates a+b. If the value found experimentally is higher than the value E calculated according to Colby, a synergistic effect is present. The culture containers used were plastic pots containing loamy sand with approximately 3.0% of humus as substrate. The seeds of the test plants were sown separately for each species. For the post-emergence treatment, the test plants were grown to a plant height of from 3 to 15 cm, depending on the plant habit, and only then treated with the active compounds which had been suspended or emulsified in water. To this end, the test plants were either sown directly, and grown in the same containers, or they were first grown separately as seedlings and transplanted into the test containers a few days prior to treatment. Depending on the species, the plants were kept at 10-25° C. and 20-35° C., respectively. The test period extended over 2 to 4 weeks. During this time, the plants were tended and their response to the individual treatments was evaluated. Evaluation was carried out using a scale from 0 to 100. 100 means no emergence of the plants, or complete destruction of at least the above-ground parts, and 0 means no damage or normal course of growth. A good herbicidal activity is given at values of at least 70, and very good herbicidal activity is given at values of at least 85. Post-Emergence Application of Herbicide A-1 (A-1) and Mesotrione (B) in Greenhouse Trials Herbicide A-1 (50 g/l) and mesotrione (480 g/l) were, together with addition of 1 v/v % MSO (methylated sed oil) as adjuvant, formulated in water as distribution medium (water volume 200 l/ha) and sprayed with commercial flat fan nozzles.

[2] = system: Zea mays; test: Example 4 post-emergence application A-1, B and C-19, ZEAMX; details: growth stage 12, 21 DAT, g ai/ha: A-1 2, B 50, C-19 30
Description: In the examples below, using the method of S. R. Colby (1967) “Calculating synergistic and antagonistic responses of herbicide combinations”, Weeds 15, p. 22ff., the value E, which is expected if the activity of the individual active compounds is only additive, was calculated:
[formula] • where • X=percent activity using active herbicide A at an application rate a; • Y=percent activity using active herbicide B (e.g. mesotrione) at an application rate b; • E=expected activity (in %) by A+B at application rates a+b.
If the value found experimentally is higher than the value E calculated according to Colby, a synergistic effect is present.
Evaluation was carried out using a scale from 0 to 100. 100 means no emergence of the plants, or complete destruction of at least the above-ground parts, and 0 means no damage or normal course of growth. A good herbicidal activity is given at values of at least 70, and very good herbicidal activity is given at values of at least 85.
Post-Emergence Application of Herbicide A-1 (A-1), Mesotrione (B) and Pyroxasulfone (C-19)
Herbicide A-1 (342 g/l), mesotrione (100 g/l) and pyroxasulfone (500 g/l) were, together with addition of 0.5 v/v % MSO (methylated sed oil) as adjuvant, formulated in water as distribution medium (water volume 200 l/ha) and sprayed with commercial flat fan nozzles.

[3] = system: Avena fatua; test: Example 2 post-emergence greenhouse trial, AVEFA
Description: In the examples below, using the method of S. R. Colby (1967) “Calculating synergistic and antagonistic responses of herbicide combinations”, Weeds 15, p. 22ff., the value E, which is expected if the activity of the individual active compounds is only additive, was calculated: [formula] • where • X=percent activity using active herbicide A at an application rate a; • Y=percent activity using active herbicide B (e.g. mesotrione) at an application rate b; • E=expected activity (in %) by A+B at application rates a+b. If the value found experimentally is higher than the value E calculated according to Colby, a synergistic effect is present. The culture containers used were plastic pots containing loamy sand with approximately 3.0% of humus as substrate. The seeds of the test plants were sown separately for each species. For the post-emergence treatment, the test plants were grown to a plant height of from 3 to 15 cm, depending on the plant habit, and only then treated with the active compounds which had been suspended or emulsified in water. To this end, the test plants were either sown directly, and grown in the same containers, or they were first grown separately as seedlings and transplanted into the test containers a few days prior to treatment. Depending on the species, the plants were kept at 10-25° C. and 20-35° C., respectively. The test period extended over 2 to 4 weeks. During this time, the plants were tended and their response to the individual treatments was evaluated. Evaluation was carried out using a scale from 0 to 100. 100 means no emergence of the plants, or complete destruction of at least the above-ground parts, and 0 means no damage or normal course of growth. A good herbicidal activity is given at values of at least 70, and very good herbicidal activity is given at values of at least 85. Post-Emergence Application of Herbicide A-1 (A-1) and Mesotrione (B) in Greenhouse Trials Herbicide A-1 (342 g/l) and mesotrione (480 g/l) were, together with addition of 0.5 v/v % MSO (methylated sed oil) as adjuvant, formulated in water as distribution medium (water volume 200 l/ha) and sprayed with commercial flat fan nozzles.

[4] = system: Kochia scoparia; test: Example 1 post-emergence greenhouse trial, KCHSC; details: growth stage 19, 21 DAT
Description: as §1

[5] = growth stage 11, 7 DAT, g ai/ha: A-1 1, B 50
[6] = growth stage 11, 20 DAT, g ai/ha: A-1 1, B 50
[7] = growth stage 11, 20 DAT, g ai/ha: A-1 1, B 100

SMILES | % herbicidal activity ([1]; g ai/ha: A-1 0.5, B 62.5) | % herbicidal activity ([1]; g ai/ha: A-1 1, B 62.5) | % herbicidal activity [2] | % herbicidal activity [3, 5] | % herbicidal activity [3, 6] | % herbicidal activity [3, 7] | % herbicidal activity ([4]; g ai/ha: A-1 0.5, B 62.5) | % herbicidal activity ([4]; g ai/ha: A-1 1, B 62.5)
CS(=O)(=O)c1ccc(C(=O)C2C(=O)CCCC2=O)c([N+](=O)[O-])c1 [B, mesotrione] | 65% | 65% | 0% | 15% | 15% | 15% | 75% | 75%
CCOC(=O)COc1ccccc1Oc1nc(-n2c(=O)cc(C(F)(F)F)n(C)c2=O)c(F)cc1Cl [A-1, ethyl 2-[2-[[3-chloro-5-fluoro-6-[3-methyl-2,6-dioxo-4-(trifluoromethyl)pyrimidin-1-yl]-2-pyridyl]oxy]phenoxy]acetate] | 60% | 80% | 40% | 70% | 35% | 35% | 65% | 65%

Reference: patent US12543736B2, “Herbicidal compositions comprising mesotrione” (BASF SE, priority 2024, dated 2026)
